Reference: the NIST ThermoML archive (doi:10.1021/je0502849)

Conditions: Liquid, Pulse-echo method

CC(C)CC(C)(C)C [2,2,4-trimethylpentane]
speed of sound [m/s]
Conditions | 293.15 K | 303.15 K | 313.15 K | 323.15 K | 333.15 K | 343.15 K | 353.15 K | 363.15 K | 373.15 K
100 kPa | 1104.6 | 1061.7 | 1019.1 | 977.9 | 935.8 | 897.3 | 858.2 | 817.2 | 780.4
10000 kPa | 1178.5 | 1139.3 | 1100.9 | 1063.5 | 1026.6 | 992.6 | 958 | 924.3 | 891
20000 kPa | 1244.6 | 1208.6 | 1173 | 1138.8 | 1105.2 | 1071.6 | 1041.7 | 1011.1 | 980.7
30000 kPa | 1304.8 | 1270.2 | 1237 | 1204.7 | 1173 | 1142.7 | 1114.1 | 1085.5 | 1057.5
40000 kPa | 1358.5 | 1326.8 | 1295.2 | 1264.6 | 1234.2 | 1205.7 | 1178.7 | 1151.4 | 1125.2
50000 kPa | 1410.3 | 1378.5 | 1349.3 | 1319 | 1290.2 | 1262.9 | 1236.1 | 1211.3 | 1185.9
60000 kPa | 1458.1 | 1427 | 1397.6 | 1369.8 | 1341.8 | 1315.4 | 1290.4 | 1265.7 | 1242.1
70000 kPa | 1502.5 | 1472.6 | 1443.4 | 1416.6 | 1390 | 1363.5 | 1339.5 | 1316.6 | 1293.1
80000 kPa | 1544.7 | 1515.6 | 1487.6 | 1461.2 | 1434.9 | 1410.8 | 1386.8 | 1364.4 | 1341.5
90000 kPa | 1584.5 | 1556.4 | 1529 | 1503.4 | 1479 | 1453.6 | 1431 | 1408.2 | 1386
100000 kPa | 1622.6 | 1594.5 | 1568.7 | 1543.4 | 1519 | 1495.3 | 1472.5 | 1449.9 | 1428.5
110000 kPa | 1658.9 | 1632.1 | 1605.9 | 1581.4 | 1557.7 | 1534 | 1512.1 | 1490.6 | 1469.2
120000 kPa | 1694 | 1667.5 | 1641.7 | 1617.8 | 1594.1 | 1571.7 | 1549.6 | 1529 | 1508.2
130000 kPa | 1727.5 | 1701.6 | 1676.3 | 1653.1 | 1629.5 | 1607.2 | 1585.9 | 1565.5 | 1545.1
140000 kPa | 1760.1 | 1734.3 | 1709.4 | 1686.4 | 1663.5 | 1641.7 | 1620.5 | 1600.8 | 1580.3
150000 kPa | 1791.1 | 1766.4 | 1741.7 | 1718.6 | 1696.2 | 1675 | 1654.1 | 1634.2 | 1614

CCC(C)C(C)C (configuration not stated) [2,3-dimethylpentane]
speed of sound [m/s]
Conditions | 293.15 K | 303.15 K | 313.15 K | 323.15 K | 333.15 K | 343.15 K | 353.15 K | 363.15 K | 373.15 K
100 kPa | 1149.5 | 1103.2 | 1061.2 | 1017.4 | 973.7 | 931 | 889.5 | 849.4 | 808.9
10000 kPa | 1220.2 | 1178.6 | 1138 | 1099.7 | 1061.7 | 1022.5 | 986.1 | 950.4 | 914.8
20000 kPa | 1284.8 | 1245.9 | 1207.8 | 1171.8 | 1136.5 | 1101.8 | 1067.4 | 1035.4 | 1003.1
30000 kPa | 1342.3 | 1306.5 | 1270.7 | 1236.2 | 1203.1 | 1170.5 | 1138.8 | 1108.4 | 1079
40000 kPa | 1396.2 | 1361.5 | 1327.2 | 1294.8 | 1263.1 | 1232 | 1201.8 | 1173.6 | 1145.4
50000 kPa | 1445.3 | 1411.9 | 1379.5 | 1348.2 | 1317.7 | 1287.5 | 1259.9 | 1232.3 | 1205.1
60000 kPa | 1491.9 | 1458.5 | 1428.2 | 1397.8 | 1368.8 | 1339.8 | 1312.3 | 1286.2 | 1260.3
70000 kPa | 1535.2 | 1503.4 | 1473.4 | 1444.3 | 1416 | 1388.3 | 1361.7 | 1336.7 | 1311.6
80000 kPa | 1576.5 | 1545.5 | 1516.6 | 1488.2 | 1460.6 | 1433.1 | 1407.9 | 1383.4 | 1358.8
90000 kPa | 1616.1 | 1585.9 | 1557.2 | 1529.5 | 1502.6 | 1476.4 | 1451 | 1427.8 | 1403.8
100000 kPa | 1653 | 1623.9 | 1595.8 | 1569.1 | 1542.8 | 1516.8 | 1492.5 | 1469.5 | 1446.4
110000 kPa | 1688.6 | 1660 | 1632.9 | 1606.4 | 1580.5 | 1555.6 | 1531.5 | 1508.7 | 1486.3
120000 kPa | 1723.2 | 1694.7 | 1668.4 | 1642.2 | 1617.1 | 1592.3 | 1569.2 | 1546.8 | 1524.6
130000 kPa | 1756.3 | 1728.8 | 1702.5 | 1676.9 | 1652.2 | 1627.9 | 1604.7 | 1583 | 1561.1
140000 kPa | 1788 | 1760.4 | 1735.5 | 1713.3 | 1685.7 | 1661.8 | 1639.3 | 1617.8 | 1596.4
150000 kPa | 1818.6 | 1792.3 | 1766.7 | 1742.2 | 1718.3 | 1694.8 | 1672.8 | 1650.9 | 1630.2

CCCC(C)C [2-methylpentane]
speed of sound [m/s]
Conditions | 293.15 K | 303.15 K | 313.15 K | 323.15 K | 333.15 K | 343.15 K | 353.15 K | 363.15 K | 373.15 K
100 kPa | 1064.6 | 1016.5 | 971.8 | 927.3 | – | – | – | – | –
10000 kPa | 1145.5 | 1102.8 | 1061.7 | 1022 | 982.1 | 943.2 | 905 | 867.4 | 830.7
20000 kPa | 1215.4 | 1176 | 1138.5 | 1101.2 | 1065.4 | 1030.2 | 996.4 | 962.8 | 931.1
30000 kPa | 1277.6 | 1240.8 | 1205.5 | 1170.8 | 1137.2 | 1104.8 | 1073.6 | 1042.9 | 1013
40000 kPa | 1334.9 | 1299.5 | 1265.9 | 1233.9 | 1201.3 | 1170.9 | 1141 | 1112.8 | 1084.6
50000 kPa | 1386.9 | 1352.6 | 1321.2 | 1289.9 | 1260.2 | 1230.4 | 1201.8 | 1174.7 | 1148.2
60000 kPa | 1434.8 | 1403 | 1372.2 | 1342.1 | 1313.1 | 1284.6 | 1257.8 | 1231.7 | 1206.3
70000 kPa | 1480.4 | 1449.6 | 1419.4 | 1391.6 | 1363.4 | 1335.3 | 1309.7 | 1284.1 | 1259.6
80000 kPa | 1523.4 | 1492.9 | 1464 | 1436 | 1408.6 | 1381.8 | 1356.7 | 1332.7 | 1309
90000 kPa | 1564 | 1534.6 | 1506.3 | 1478.4 | 1452.5 | 1426.6 | 1402.3 | 1378.4 | 1354.6
100000 kPa | 1602.3 | 1573.5 | 1546.3 | 1519.2 | 1493.6 | 1468.3 | 1444.8 | 1421.9 | 1399
110000 kPa | 1638.5 | 1610.7 | 1584.2 | 1558.7 | 1532.6 | 1508.4 | 1485.1 | 1462.6 | 1440.8
120000 kPa | 1674.4 | 1646.9 | 1620.7 | 1595.2 | 1570 | 1546.2 | 1523.3 | 1501.1 | 1479.6
130000 kPa | 1708.1 | 1681.6 | 1655.7 | 1630.8 | 1605.9 | 1582.5 | 1560 | 1538.3 | 1517.1
140000 kPa | 1740.8 | 1714.3 | 1689.6 | 1664.2 | 1640.4 | 1617.2 | 1595.2 | 1573.9 | 1553
150000 kPa | 1771.8 | 1746.6 | 1721.4 | 1696.8 | 1673 | 1650.2 | 1628.8 | 1607.8 | 1587.5
